# Source: US7790196B2, “Extracellular vesicles from non-pathogenic amoebae useful as vehicle for transferring a molecule of interest to an eukaryotic cell” (Universite Pierre et Marie Curie- Paris VI, priority 2003, dated 2010)
# Columns and labels:
# Leukemic K562 cells = settings: Asahi et al., 1995; cited from earlier work
# Dd cells [1] = assay: Vesicle-mediated release of cargo molecule from Dd cells (micro-spectrofluorimetry of “12,000” vesicles); format: cell-based, Dictyostelium discoideum
# Protocol: The capacity of Dd cells to internalise different exogenous molecules was studied. Further, their ability to release vesicles, in particular the “12,000” vesicles, carrying a broad-spectrum of molecules of interest was assessed. Flow cytometry and micro-spectrofluorimetry were used to measure respectively the cell internalisation and the vesicle-mediated release of the fluorescent cargo molecule as a function of incubation time in the growth medium. Growing Dd cells were incubated for different periods of time up to 72 h in the presence of the exogenous molecule. Fractions of the cells were fixed in 2% paraformaldehyde after each one of these increasing incubation times. Simultaneously, the externalised “12,000” vesicles were prepared from aliquots of the growth medium and concentrated (×20). As controls, Dd cells were grown in parallel without the cargo molecule and handled the same. Moreover, cell counting during growth allowed to check for any cytotoxicity of the studied molecule as a function of time. Cell and vesicle samples were kept at 4° C. until measurements.
# Dd cells [2] = assay: Cytotoxicity of the cargo molecule towards growing Dd cells (cell counting during growth); format: cell-based, Dictyostelium discoideum
# Protocol: The growth curve of Dd cells, continuously maintained with HO342 (10 μg/ml) since the initiation of the culture at a density of 3×10^6 cells/ml is shown on FIG. 3a. Images of Dd cells, fixed in 70% MeOH at different times (from 72 h to 216 h), show the aspect of the cells and of their HO342 stained nuclei. Apoptosis might increase as a function of time along the stationary plateau (Tatischeff et al., 2001), and the characteristic much smaller size of apoptotic cells were predominant for the t′216 fixed Dd cells (FIG. 3a).
# The capacity of Dd cells to internalise different exogenous molecules was studied. Further, their ability to release vesicles, in particular the “12,000” vesicles, carrying a broad-spectrum of molecules of interest was assessed. Flow cytometry and micro-spectrofluorimetry were used to measure respectively the cell internalisation and the vesicle-mediated release of the fluorescent cargo molecule as a function of incubation time in the growth medium. Growing Dd cells were incubated for different periods of time up to 72 h in the presence of the exogenous molecule. Fractions of the cells were fixed in 2% paraformaldehyde after each one of these increasing incubation times. Simultaneously, the externalised “12,000” vesicles were prepared from aliquots of the growth medium and concentrated (×20). […]
smiles,measurement,setting,value
CCCCCC(=O)c1c(O)c(Cl)c(OC)c(Cl)c1O [DIF],differentiation of K562 cells,Leukemic K562 cells,differentiate and recover the capacity to synthesize haemoglobin
COc1cccc2c1C(=O)c1c(O)c3c(c(O)c1C2=O)C[C@@](O)(C(=O)CO)C[C@@H]3O[C@H]1C[C@H](N)[C@H](O)[C@H](C)O1 [Doxorubicine],release of the molecule into vesicles,Dd cells [1],"also released into “12,000” vesicles"
"CCOc1ccc(-c2nc3ccc(-c4nc5ccc(N6CCN(C)CC6)cc5[nH]4)cc3[nH]2)cc1 [HO342, Hoechst 33342]",cytotoxicity during incubation with Dd cells in the growth medium,"Dd cells [2]; HO342 10 μg/ml, continuously since initiation of culture",absence of cytotoxicity
Cc1cc(O)c2c(=O)c3c(O)cc(O)c4c5c(O)cc(O)c6c(=O)c7c(O)cc(C)c8c1c2c(c34)c(c78)c65 [hypericin],toxicity towards Dd cells,Dd cells [2]; hypericin 25 μM in growth medium,without any apparent toxicity
